Results as given in US20110182982A1, “LIPOSOME TREATMENT OF VIRAL INFECTIONS” (University of Oxford, priority 2006, published 2011).
Where two headings read alike, the source gives them in different places.

What was measured:
cp BVDV = assay: Yield reduction (plaque) assay; assay type: cell-based, bovine viral diarrhea virus; settings: for IC50: Bovine viral diarrhea virus isolates and strains, read-out: IC50, secretion of infectious BVDV
Method: The antiviral effect of liposome-included NB-DNJ was also tested against the cp BVDV, using the yield reduction assay, a method which takes advantage of the cp strain being able to form plaques on monolayers of infected cells.
FIG. 7 represents the effect of free vs. DC liposome-encapsulated NB-DNJ, on secretion of infectious cp BVDV. MDBK cells infected with cp BVDV were treated for 3 days with either free or DC liposome-NB-DNJ, so that the final NB-DNJ concentrations ranged between 0 and 500 μM and the total lipid concentration was 100 μM. The supernatants were then removed and used to infect fresh MDBK monolayers in six-well plates. After 3 days the plaques were counted under the microscope (plaque assay) and the results were expressed as a percentage of the number of plaques resulting from infection with no drug supernatant (=100%) (x axis). The y axis indicates the free or DC liposome-included NB-DNJ concentrations used in the plaque assay. The IC50 is indicated at the bottom of the graph.

ER glucosidases I and II = assay: Free oligosaccharide (FOS) analysis as marker of glucosidase inhibition; assay type: cell-based, Chinese hamster
Text: Free oligosaccharides (FOS) produced in the presence of free or DCPP liposomes encapsulating NB-DNJ are characterized and used as a cellular marker for glucosidase inhibition to measure the enhancement of drug activity due to intracellular delivery. […] In this experiment, the distribution of glucosylated FOS is used as a measure of glucosidase inhibition by NB-DNJ, where Glc1Mann-FOS and Glc2Mann-FOS species are a result of glucosidase II inhibition, and Glc3Mann-FOS a result of glucosidase I inhibition.
CHO cells were incubated in the presence of free NB-DNJ at the antiviral concentration of 0.5 mM, or with 100 μM of DCPP liposomes encapsulating NB-DNJ at final concentrations ranging 0-75 nM. Cells were left to incubate for 5 days and isolation of FOS was performed using cell homogenates standardized to 500 μg of total protein as described by Mellor et al (2004). Biochem J. 2004 Aug. 1; 381 (Pt 3): 861-866. Detection of FOS was performed by normal-phase HPLC following labeling of oligosaccharides by 2-aminobenzamide. The compositions of FOS were further characterized and determined by digestions with glycosidases including endoglycosidase H, jack bean α-mannosidase, and α-glucosidases I and II. The percentage of non-glucosylated and glucosylated oligomannose FOS (represented by Mann-FOS, Glc1Mann-FOS, Glc2Mann-FOS, and Glc3Mann-FOS) was calculated for each sample, and results are represented in Table 2. Results represent the mean±S.D. of four separate experiments.

[1] = system: HIV envelope protein gp120; assay: 2G12 and b12 binding to gp120 expressed in CHO cells, capture ELISA; assay type: cell-based
Method: In the following example, the activity of NB-DNJ as measured by the inhibition of glycan processing on the HIV envelope protein, gp120, is determined following expression in CHO cells in the presence of free or DCPP liposome-encapsulated NB-DNJ.
CHO cells expressing a soluble form of HIV gp120 were incubated in the presence of free NB-DNJ with concentrations ranging between 0-5 mM, or with liposomes encapsulating NB-DNJ with final concentrations in the medium ranging between 0 and 750 nM. Cells were left to incubate for 5 days before cellular supernatant containing the treated gp120 was collected. To measure the inhibition of glycan processing on gp120 expressed in the presence of NB-DNJ (either free or in liposomes), the binding of the MAb 2G12 was determined by capture ELISA. 2G12 recognizes a cluster of mannose residues on the carbohydrate-rich surface of gp120, and loss of binding in the presence of NB-DNJ results from the retention of glucose on the oligomannose glycans that form the epitope. A loss of binding affinity, however, may also arise from a misfolding of the protein, and to distinguish between these two possibilities, the affinity of all samples for the neutralizing MAb, b12, is also measured. […] Soluble gp120 located in the cellular supernatant was captured in ELISA plates using the D7324 antibody (binds the C5 region of gp120) and treated with 10 μg/ml of either 2G12 or b12. The binding of both antibodies to NB-DNJ-treated samples was related to that for the untreated gp120, where data are expressed as percent binding and represent the mean±S.D. of triplicates from four separate experiments.

[2] = 7.5 nM, liposome-mediated delivery

CCCCN1C[C@H](O)[C@@H](O)[C@H](O)[C@H]1CO [NB-DNJ, N-butyl-1,5-dideoxy-1,5-imino-D-glucitol]
better inhibition, DC liposomes vs free (cp BVDV): 8 fold
IC50 (cp BVDV; free drug): 175 µM
IC50 (cp BVDV; included in DC liposomes, total lipid 100 μM): 20 µM
Distribution of total FOS Glc0Mann (ER glucosidases I and II; 0.75 pM in liposomes): 70.7 ± 5.4%
Distribution of total FOS Glc1Mann (ER glucosidases I and II; 0.75 pM in liposomes): 18.7 ± 3.7%
Distribution of total FOS Glc2Mann (ER glucosidases I and II; 0.75 pM in liposomes): 7.7 ± 1.1%
Distribution of total FOS Glc3Mann (ER glucosidases I and II; 0.75 pM in liposomes): 2.9 ± 0.9%
Distribution of total FOS Glc0Mann (ER glucosidases I and II; 7.5 pM in liposomes): 70.4 ± 4.2%
Distribution of total FOS Glc1Mann (ER glucosidases I and II; 7.5 pM in liposomes): 17.7 ± 1.3%
Distribution of total FOS Glc2Mann (ER glucosidases I and II; 7.5 pM in liposomes): 8.3 ± 2.1%
Distribution of total FOS Glc3Mann (ER glucosidases I and II; 7.5 pM in liposomes): 3.6 ± 1.3%
Distribution of total FOS Glc0Mann (ER glucosidases I and II; 75 pM in liposomes): 51.7 ± 4.7%
Distribution of total FOS Glc1Mann (ER glucosidases I and II; 75 pM in liposomes): 38.6 ± 4.1%
Distribution of total FOS Glc2Mann (ER glucosidases I and II; 75 pM in liposomes): 5.3 ± 1.8%
Distribution of total FOS Glc3Mann (ER glucosidases I and II; 75 pM in liposomes): 4.4 ± 2.8%
Distribution of total FOS Glc0Mann (ER glucosidases I and II; 0.75 nM in liposomes): 20.4 ± 2.7%
Distribution of total FOS Glc1Mann (ER glucosidases I and II; 0.75 nM in liposomes): 66.9 ± 5.1%
Distribution of total FOS Glc2Mann (ER glucosidases I and II; 0.75 nM in liposomes): 7.4 ± 3.3%
Distribution of total FOS Glc3Mann (ER glucosidases I and II; 0.75 nM in liposomes): 5.3 ± 2.9%
Distribution of total FOS Glc0Mann (ER glucosidases I and II; 7.5 nM in liposomes): 12.7 ± 2.6%
Distribution of total FOS Glc1Mann (ER glucosidases I and II; 7.5 nM in liposomes): 50.0 ± 4.8%
Distribution of total FOS Glc2Mann (ER glucosidases I and II; 7.5 nM in liposomes): 28.6 ± 2.7%
Distribution of total FOS Glc3Mann (ER glucosidases I and II; 7.5 nM in liposomes): 8.7 ± 1.7%
Distribution of total FOS Glc0Mann (ER glucosidases I and II; 75 nM in liposomes): 13.2 ± 4.1%
Distribution of total FOS Glc1Mann (ER glucosidases I and II; 75 nM in liposomes): 7.9 ± 2.8%
Distribution of total FOS Glc2Mann (ER glucosidases I and II; 75 nM in liposomes): 26.6 ± 4.5%
Distribution of total FOS Glc3Mann (ER glucosidases I and II; 75 nM in liposomes): 52.3 ± 6.2%
Distribution of total FOS Glc0Mann (ER glucosidases I and II; 0.5 mM free): 11.9 ± 1.9%
Distribution of total FOS Glc1Mann (ER glucosidases I and II; 0.5 mM free): 9.5 ± 0.9%
Distribution of total FOS Glc2Mann (ER glucosidases I and II; 0.5 mM free): 31.7 ± 4.5%
Distribution of total FOS Glc3Mann (ER glucosidases I and II; 0.5 mM free): 46.9 ± 4.8%
gp120 binding to 2G12 [1, 2]: 9.8±4.8%
gp120 binding to b12 [1, 2]: 96.3±3.2%
gp120 binding to 2G12 ([1]; 0.5-mM free in the medium): 1.2±0.1%
gp120 binding to b12 ([1]; 0.5-mM free in the medium): 100%
